Measurements: US7598392B2, “2-amido-4-phenylthiazole derivatives, the preparation and the therapeutic use thereof” (sanofi-aventis, priority 2004, dated 2009)

Molecular target: T1, human CCR2b receptor (Homo sapiens, UniProt P41597)
T1 sequence (P41597 1-360 isoform P41597-2): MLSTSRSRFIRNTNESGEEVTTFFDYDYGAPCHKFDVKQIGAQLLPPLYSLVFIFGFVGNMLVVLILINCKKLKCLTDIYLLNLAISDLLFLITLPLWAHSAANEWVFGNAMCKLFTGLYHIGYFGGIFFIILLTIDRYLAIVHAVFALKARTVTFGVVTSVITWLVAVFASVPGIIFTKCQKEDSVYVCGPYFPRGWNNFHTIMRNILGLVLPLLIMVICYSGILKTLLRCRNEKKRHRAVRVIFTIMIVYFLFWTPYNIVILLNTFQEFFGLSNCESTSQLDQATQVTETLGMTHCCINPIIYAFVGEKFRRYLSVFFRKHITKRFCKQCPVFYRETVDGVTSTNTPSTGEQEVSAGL
Assay: Inhibitory activity on cells expressing the human CCR2b receptor
Format: cell-based
Description: The inhibitory activity of the compounds according to the invention on cells expressing the human CCR2b receptor was measured.

| Molecule | IC50 [nM] |
| --- | --- |
| COc1ccc(C2CCCCC2)cc1-c1csc(NC(=O)C2CCCN(C(=O)c3cccc(C#N)c3)C2)n1 (stereo not drawn) [Compound 20] | 25 |
| CCCOc1ccc(OC)c(-c2csc(NC(=O)C3CCCN(C(=O)c4cc([N+](=O)[O-])cc([N+](=O)[O-])c4)C3)n2)c1 (stereo not drawn) [Compound 1] | 290 |

Next, values leading:

| IC50 [nM] | Molecule |
| --- | --- |
| 44 | COc1ccc(C2CCCCC2)cc1-c1csc(NC(=O)C2CCCN(C(=O)c3ccoc3C)C2)n1 (stereo not drawn) [Compound 31] |
| 0.57 | hMCP-1: "hMCP-1 (human monocyte chemotactic protein)", "belongs to the group or CC chemokines and which is a natural agonist of the CCR2b receptor" |
| 5 | COc1ccc(C2CCCCC2)cc1-c1csc(NC(=O)C2CCCN(C(=O)c3ccncn3)C2)n1 (stereo not drawn) [Compound 107, 1-(pyrimidine-4-carbonyl)piperidine-3-carboxylic acid [4-(5-cyclohexyl-2-methoxyphenyl)thiazol-2-yl]amide] |

Tested on: human THP-1 monocytes
Assay: Inhibition of chemotaxis on human THP-1 monocytes
Format: cell-based
Description: The inhibition of chemotaxis was also measured on human THP-1 monocytes (sold by DSMZ—Germany) using a technique adapted from that described by A. Albini et al., Cancer Res., 1987, 47, 3239-3245. Under these conditions, hMCP-1 has an IC50 of 6 nM.

| IC50 [nM] | Molecule |
| --- | --- |
| 6 | hMCP-1: "hMCP-1 (human monocyte chemotactic protein)", "belongs to the group or CC chemokines and which is a natural agonist of the CCR2b receptor" |
